In ChEMBL document CHEMBL1201862, “PubChem BioAssay data set” (2004):
“And” between values parts separate entries of the source, which are not always exact repeats. Equal values may be shown once.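 Dose response: 5 concentrations. Exposure: 48 h. Format: 96-well plates. Endpoint: linear interpolation; highest concentration if not reached. The concentration for 50% growth inhibition is given as GI50.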 The source made the active and inactive calls. No stated cut-off is given here; in the data, active = GI50 up to about 1.1 µM and inactive = higher.

What was measured:
Assay in all cases: inhibition of tumour cell growth, NCI panel, 48 h
[1] = system: COLO 205
[2] = system: EKVX
[3] = system: HOP-92
[4] = system: K562
[5] = system: KM12
[6] = system: M14
[7] = system: NCI-H23
[8] = system: OVCAR-4
[9] = system: OVCAR-5
[10] = system: PC-3
[11] = system: RPMI-8226
[12] = system: SF-268
[13] = system: SK-MEL-2
[14] = system: SNB-19
[15] = system: SNB-75
[16] = system: UACC-257
[17] = system: UO-31
[18] = system: RXF 393
[19] = system: SF-539

Measured: GI50

CCOC(=O)Cc1c(C)c2ccc(OC(C)=O)c(OC(C)=O)c2oc1=O
inactive: [1] 40 µM | [2] 23.1 µM | [3] 17.5 µM | [4] 28.8 µM | [5] 32.7 µM | [6] 17.9 µM | [7] 22.4 µM | [8] 16.5 µM | [9] 53.6 µM | [10] 23.3 µM | [11] 18.3 µM | [12] 19.6 µM | [13] 49.5 µM | [14] 13.3 µM | [15] 19.4 µM | [16] 14.8 µM | [17] 13.9 µM

CC1=C(C(=O)NCc2ccccc2)C(c2ccc(Cl)c(Cl)c2)C(C(=O)NCc2ccccc2)=C(C)N1
inactive: [2] > 100 µM | [3] > 100 µM | [4] > 100 µM | [5] > 100 µM | [6] > 100 µM | [7] > 100 µM | [8] > 100 µM | [9] > 100 µM | [11] > 100 µM | [18] > 100 µM | [12] > 100 µM | [19] > 100 µM | [13] > 100 µM | [14] > 100 µM | [15] > 100 µM | [16] > 100 µM | [17] > 100 µM

Cc1cccc(C)c1NC(=O)CCC(=O)/N=C(\N)NC#N
inactive: [1] > 100 µM | [2] > 100 µM | [3] > 100 µM | [4] > 100 µM | [5] > 100 µM | [6] > 100 µM | [7] > 100 µM | [8] > 100 µM | [9] > 100 µM | [11] > 100 µM | [18] > 100 µM | [12] > 100 µM | [19] > 100 µM | [14] > 100 µM | [15] > 100 µM | [16] > 100 µM | [17] > 100 µM

CC1CCCC(C(O)CC2CC(=O)N(c3ccccc3)C(=O)C2)C1=O (configuration not stated)
inactive: [1] > 100 µM | [2] > 100 µM | [3] > 100 µM | [4] > 100 µM | [5] > 100 µM | [6] > 100 µM | [7] > 100 µM | [8] > 100 µM | [9] > 100 µM | [11] > 100 µM | [18] > 100 µM | [12] > 100 µM | [19] > 100 µM | [14] > 100 µM | [15] > 100 µM | [16] > 100 µM | [17] > 100 µM

COc1c(O)c2c3c(c(C)cc(O)c3c1O)C(=O)C(O)(C(C)(C)C(C)=O)C2=O (configuration not stated)
inactive: [1] > 100 µM | [3] > 100 µM | [5] > 100 µM | [6] > 100 µM | [7] > 100 µM | [8] > 100 µM | [9] > 100 µM | [11] > 100 µM and 82.2 µM | [18] > 100 µM | [12] > 100 µM | [19] > 100 µM | [13] > 100 µM | [14] > 100 µM | [15] > 100 µM and 61 µM | [16] > 100 µM | [17] > 100 µM

O=[N+]([O-])c1ccc(-n2nnc(C3=NCCN3)c2-c2ccccc2)cc1
inactive: [1] > 100 µM | [2] > 100 µM | [3] > 100 µM | [4] > 100 µM | [5] > 100 µM | [6] > 100 µM | [7] > 100 µM | [8] > 100 µM | [9] > 100 µM | [11] > 100 µM | [18] > 100 µM | [12] > 100 µM | [19] > 100 µM | [13] > 100 µM | [14] > 100 µM | [15] > 100 µM | [16] > 100 µM | [17] > 100 µM

N#CC1=C(Cl)NC(Cl)=C(C#N)C1c1ccc(Cl)cc1
inactive: [1] 16.5 µM | [2] 19.5 µM | [3] 15.2 µM | [4] 11.9 µM | [5] 17.6 µM | [6] 16.8 µM | [7] 17.9 µM | [9] 34 µM | [11] 17.5 µM | [18] 17.1 µM | [12] 18.7 µM | [19] 18.1 µM | [13] 13.9 µM | [14] 16.6 µM | [15] 14.9 µM | [16] 18.3 µM | [17] 17 µM

COC(=O)c1c[nH]c2nc(N3CCOCC3)nn2c1=O
inactive: [1] > 100 µM | [2] > 100 µM | [3] > 100 µM | [4] > 100 µM | [5] > 100 µM | [6] > 100 µM | [7] > 100 µM | [8] > 100 µM | [9] > 100 µM | [11] > 100 µM | [18] > 100 µM | [12] > 100 µM | [19] > 100 µM | [13] > 100 µM | [14] > 100 µM | [15] > 100 µM | [16] > 100 µM | [17] > 100 µM
